These are literature values, as cited in patent publication US7498301B2, “Composition containing dipeptide of histidine and alanine for reducing uric acid and method for reducing uric acid using the dipeptide” (Lytone Enterprise, Inc., priority 2003, dated 2009).

Data set [1] concerns peptidase and proteases excreted from pancreas or other digestive organs.
The conditions of data set [2]: low pH (<3.0).

With `NCCC(=O)N[C@@H](Cc1cnc[nH]1)C(=O)O` [carnosine, β-alanyl-L-histidine], the “Digestion by peptidase and proteases” value in data set [1] was “resist against digestion”. In data set [2], the “Stability under low pH” value was “remain intact”.
